Literature values in patent US8759098B2, “Method for cloning pluripotent stem cells” (Boston Biomedical Research Institute, Inc., priority 2009, dated 2014).

Test system: human adult tissue
Conditions: used singly and in combination; Lin et al. 2009; cited from earlier work

Row | Compound | efficiency of creating stem cells from human adult tissue
1 | O=C(NOC[C@H](O)CO)c1ccc(F)c(F)c1Nc1ccc(I)cc1F [PD0325901] | dramatically improve the efficiency
2 | NC(=O)c1ccc(-c2nc(-c3ccccn3)c(-c3ccc4c(c3)OCO4)[nH]2)cc1 [SB43142] | dramatically improve the efficiency
